Assay results as given in ChEMBL document CHEMBL4118211, “Isoxazole-tethered diarylheptanoid analogs: Discovery of a new drug-like PAR2 antagonist” (Bioorg Med Chem Lett, 2018).
Values after ≈ are worked out from the molar mass of the structure shown.

Key:
[1] = Permeability from apical to basolateral side in human Caco2 cells at 5 uM after 90 mins; type: ADME, cell-based; conditions: Caco-2, read-out: permeability
[2] = target: Proteinase-activated receptor 2 (Homo sapiens) (UniProt P55085); assay: Antagonist activity at PAR2 in human HEK293 cells assessed as inhibition of trypsin-induced intracellular calcium flux at 30 uM pretreated for 15 mins followed by trypsin addition by Fluo-8 dye based fluorescence assay relative to control; type: functional, cell-based
[3] = Permeability from basolateral to apical side in human Caco2 cells at 5 uM after 90 mins; type: ADME, cell-based; conditions: Caco-2, read-out: permeability
[4] = Metabolic stability in human liver microsomes assessed as parent compound remaining at 1 uM preincubated for 5 mins followed by NADPH addition measured after 30 mins by LC-MS/MS analysis; type: ADME, microsome; conditions: read-out: Stability
HepG2 = assay: Cytotoxicity against human HepG2 cells assessed as reduction in cell viability after 24 hrs by MTT assay; type: cell-based; conditions: HepG2, 24 h
[5] = Kinetic solubility of the compound in phosphate buffer at pH 7.4 at 0.0098 to 10 mM by turbidometric method; type: physicochemical; conditions: read-out: Kinetic_solubility
[6] = target: Proteinase-activated receptor 2 (Homo sapiens) (UniProt P55085); assay: Antagonist activity at PAR2 in human HEK293 cells assessed as trypsin-induced intracellular calcium flux at 10 uM pretreated for 15 mins followed by trypsin addition by Fluo-8 dye based fluorescence assay relative to control; type: functional, cell-based; set-up: scale not given: the % may be the effect or the level left
[7] = target: Proteinase-activated receptor 2 (Homo sapiens) (UniProt P55085); assay: Antagonist activity at PAR2 in human HEK293 cells assessed as trypsin-induced intracellular calcium flux at 1 uM pretreated for 15 mins followed by trypsin addition by Fluo-8 dye based fluorescence assay relative to control; type: functional, cell-based; set-up: scale not given: the % may be the effect or the level left
[8] = target: Proteinase-activated receptor 2 (Homo sapiens) (UniProt P55085); assay: Antagonist activity at PAR2 in human HEK293 cells assessed as trypsin-induced intracellular calcium flux at 3 uM pretreated for 15 mins followed by trypsin addition by Fluo-8 dye based fluorescence assay relative to control; type: functional, cell-based; set-up: scale not given: the % may be the effect or the level left
[9] = target: Proteinase-activated receptor 2 (Homo sapiens) (UniProt P55085); assay: Antagonist activity at PAR2 in human HEK293 cells assessed as inhibition of trypsin-induced intracellular calcium flux at 10 uM pretreated for 15 mins followed by trypsin addition by Fluo-8 dye based fluorescence assay relative to control; type: functional, cell-based
[10] = target: Proteinase-activated receptor 2 (Homo sapiens) (UniProt P55085); assay: Antagonist activity at PAR2 in human HEK293 cells assessed as trypsin-induced intracellular calcium flux at 0.3 uM pretreated for 15 mins followed by trypsin addition by Fluo-8 dye based fluorescence assay relative to control; type: functional, cell-based; set-up: scale not given: the % may be the effect or the level left
[11] = target: Proteinase-activated receptor 2 (Homo sapiens) (UniProt P55085); assay: Antagonist activity at PAR2 in human HEK293 cells assessed as trypsin-induced intracellular calcium flux at 0.01 uM pretreated for 15 mins followed by trypsin addition by Fluo-8 dye based fluorescence assay relative to control; type: functional, cell-based; set-up: scale not given: the % may be the effect or the level left
[12] = target: Proteinase-activated receptor 2 (Homo sapiens) (UniProt P55085); assay: Antagonist activity at PAR2 in human HEK293 cells assessed as trypsin-induced intracellular calcium flux at 100 uM pretreated for 15 mins followed by trypsin addition by Fluo-8 dye based fluorescence assay relative to control; type: functional, cell-based; set-up: scale not given: the % may be the effect or the level left
[13] = target: T1, Proteinase-activated receptor 2 (Homo sapiens, UniProt P55085); assay: Antagonist activity at PAR2 in human HEK293 cells assessed as inhibition of trypsin-induced intracellular calcium flux pretreated for 15 mins followed by trypsin addition by Fluo-8 dye based fluorescence assay; type: functional, cell-based
T1 sequence (P55085 whole entry): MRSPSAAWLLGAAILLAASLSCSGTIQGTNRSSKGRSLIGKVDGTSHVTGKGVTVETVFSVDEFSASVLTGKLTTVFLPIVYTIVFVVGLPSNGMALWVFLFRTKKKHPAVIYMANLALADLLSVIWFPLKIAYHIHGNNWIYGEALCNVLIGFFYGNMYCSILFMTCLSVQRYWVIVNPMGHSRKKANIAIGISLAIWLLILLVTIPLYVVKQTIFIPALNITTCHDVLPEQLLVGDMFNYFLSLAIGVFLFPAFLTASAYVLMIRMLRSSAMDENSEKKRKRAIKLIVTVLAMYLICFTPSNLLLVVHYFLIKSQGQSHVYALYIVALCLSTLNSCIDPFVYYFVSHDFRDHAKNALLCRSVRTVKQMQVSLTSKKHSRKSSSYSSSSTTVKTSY

[14] = target: Proteinase-activated receptor 2 (Homo sapiens) (UniProt P55085); assay: Antagonist activity at PAR2 in human HEK293 cells assessed as trypsin-induced intracellular calcium flux at 0.1 uM pretreated for 15 mins followed by trypsin addition by Fluo-8 dye based fluorescence assay relative to control; type: functional, cell-based; set-up: scale not given: the % may be the effect or the level left
[15] = target: T1, Proteinase-activated receptor 2; assay: Antagonist activity at PAR2 in human 1321N1 cells assessed as inhibition of trypsin-induced intracellular calcium flux pretreated for 60 mins followed by trypsin addition by Fluo-8 NW dye based FLIPR assay; type: functional, cell-based
[16] = target: Amyloid-beta precursor protein (Homo sapiens, UniProt P05067); assay: Displacement of [125I]IMPY from fibrillar amyloid beta 42 (unknown origin) after 3 hrs
Sequence of Amyloid-beta precursor protein (P05067 whole entry): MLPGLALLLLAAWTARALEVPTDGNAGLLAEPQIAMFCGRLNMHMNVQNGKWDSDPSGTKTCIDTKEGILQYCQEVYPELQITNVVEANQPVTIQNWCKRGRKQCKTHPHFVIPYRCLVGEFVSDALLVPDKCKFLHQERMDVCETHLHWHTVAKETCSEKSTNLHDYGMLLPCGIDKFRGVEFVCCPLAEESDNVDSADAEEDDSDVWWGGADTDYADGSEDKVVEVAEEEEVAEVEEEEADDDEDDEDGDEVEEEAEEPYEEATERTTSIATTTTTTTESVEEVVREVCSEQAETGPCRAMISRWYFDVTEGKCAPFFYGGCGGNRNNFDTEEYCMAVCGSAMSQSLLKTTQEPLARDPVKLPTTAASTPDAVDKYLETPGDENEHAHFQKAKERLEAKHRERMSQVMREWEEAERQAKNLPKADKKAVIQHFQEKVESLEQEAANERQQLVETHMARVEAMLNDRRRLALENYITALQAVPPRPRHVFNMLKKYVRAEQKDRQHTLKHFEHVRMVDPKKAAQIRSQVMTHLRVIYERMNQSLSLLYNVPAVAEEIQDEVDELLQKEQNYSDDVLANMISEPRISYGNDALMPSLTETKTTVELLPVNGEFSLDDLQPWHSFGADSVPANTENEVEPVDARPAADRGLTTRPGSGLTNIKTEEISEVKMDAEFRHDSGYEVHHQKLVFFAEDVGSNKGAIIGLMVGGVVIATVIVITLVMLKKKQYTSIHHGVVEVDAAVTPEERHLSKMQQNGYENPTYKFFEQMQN

Compound | remaining at 0.5 h, 1 µM [4] | IC50 (HepG2) | solubility kinetic [5] | further results
O[C@@H](CCc1ccc(F)cc1)C[C@@H](O)c1cc(-c2ccccc2)on1 | 73% | > 100 µM | 25 µM (≈ 8.53 µg/mL) | Papp A→B at 1.5 h, 5 µM [1]: 6.3 ×10⁻⁶ cm/s; inhibition [2]: 70%; Papp B→A at 1.5 h, 5 µM [3]: 5 ×10⁻⁶ cm/s; Activity [6]: 65 to 70%; Activity [7]: 100%; Activity [8]: 100%
COc1ccc(CC[C@H](O)C[C@H](O)c2cc(-c3ccc(OC)cc3)on2)cc1 | < 20% | > 100 µM | 12 µM (≈ 4.6 µg/mL) | 
CC[C@H](C)[C@H](NC(=O)[C@H](CC1CCCCC1)NC(=O)c1ccno1)C(=O)N1CCC2(CCc3ccccc32)CC1 |  |  |  | inhibition [9]: 42%
O[C@@H](CCc1ccc(F)cc1)C[C@H](O)c1cc(-c2ccccc2)on1 | 84% | > 100 µM | 25 µM (≈ 8.53 µg/mL) | Papp A→B at 1.5 h, 5 µM [1]: 7.4 ×10⁻⁶ cm/s; inhibition [2]: 80%; Activity [10]: 80 to 85%; Papp B→A at 1.5 h, 5 µM [3]: 5.8 ×10⁻⁶ cm/s; Activity [11]: 95 to 100%; Activity [12]: 15 to 20%; IC50 [13]: 6 µM; Activity [14]: 90 to 95%; Activity [6]: 43 to 48%; Activity [7]: 74 to 78%; Activity [8]: 60 to 65%
CCCc1cc(F)ccc1[C@H](O)c1ncc[nH]1 |  |  |  | IC50 [15]: 4.2 µM
COc1cc(/C=C/C(=O)CC(=O)/C=C/c2ccc(O)c(OC)c2)ccc1O [CURCUMIN] | 21% | 10 µM | 3 µM (≈ 1.11 µg/mL) | Papp A→B at 1.5 h, 5 µM [1]: < 0.5 ×10⁻⁶ cm/s; Papp B→A at 1.5 h, 5 µM [3]: < 0.5 ×10⁻⁶ cm/s
COc1cccc(CC[C@H](O)C[C@@H](O)c2cc(-c3ccccc3)on2)c1 | < 20% | > 100 µM | 25 µM (≈ 8.84 µg/mL) | 
COc1cc(/C=C/c2cc(/C=C/c3ccc(O)c(OC)c3)on2)ccc1O |  |  |  | IC50 [16]: 0.138 µM
C[C@@H](C1CCCCC1)n1c(-c2cc3c(cc2Br)OCO3)nc2cc(C(=O)Nc3ccc(C#N)cc3)ccc21 |  |  |  | IC50 [15]: 6.6 µM
COc1ccc(CC[C@H](O)C[C@H](O)c2cc(-c3ccccc3)on2)cc1 | 33% | > 100 µM | 25 µM (≈ 8.84 µg/mL) | 
COc1ccc(-c2cc([C@@H](O)C[C@@H](O)CCc3ccc(Cl)cc3)no2)cc1 | < 20% | > 100 µM | 12 µM (≈ 4.65 µg/mL) | 
COc1ccc(CC[C@H](O)C[C@@H](O)c2cc(-c3ccccc3)on2)cc1 | 32% | > 100 µM | 25 µM (≈ 8.84 µg/mL) | 
